Laboratory results taken from patent US20190046649A1, “DELIVERY DEVICE AND USE THEREOF FOR LOADING CELL PLASMA MEMBRANES” (UNIVERSITY OF MARYLAND, BALTIMORE COUNTY, priority 2017, published 2019).
No end group written: not given here.

Assays:
[1] = tested on: CD8+ T cells; assay: Proliferation of depoted T cells after 3 d stimulation with 1:1 anti-CD3/28 beads (CFSE dilution); type: cell-based, murine; settings: 1:1 beads
Description: T-Cells were cultured with 5 μM of soluble lipo-CpG or depoted with lipo-CpG, and CFSE dilution was measured by flow cytometry. B) Quantification of division index of CD4^+ T-cells as measured by CFSE dilution from flow cytometry. n=3 independent experiments, one-way ANOVA with Krustal-Wallis test. *p<0.05 between the unstim condition.
CD45.1+ B cells were depoted with lipo-CpG, CpG, or nothing. These were cultured alone or 1:1 mixed with bystander (no depot) CD45.1− B cells. B cell activation was shown as fold intensity CD86 measured by flow cytometry after 3 d. B) CD8+ T cells were depoted with Pam2CSK4 or nothing, and then co-cultured 1:1 with bystander CD45.1+ B cells for 3 d. B cell activation was measured by CD86 and compared to a continuous exposure Pam2CSK4 control. C) Representative histograms showing CFSE dilution (proliferation) of CD8+ T cells after 3 d stimulation with 1:1 anti-CD3/28 beads. Where indicated, cells were depoted or cultured with continuous soluble lipo-CpG (left) or Pam2CSK4 (right). Bars=median, whiskers=range; n=3.
B cells depoted with lipo-CpG had sustained activation up to 3 d (FIG. 10 A). […] The ability of a surface sensed lipo-Av to activate neighboring cells was also tested, using Pam2CSK4 which engages surface TLR2.

[2] = tested on: bystander B cells (TLR2); assay: TLR2 ligand-depoted T cells co-cultured with bystander B cells, activation markers by flow cytometry; type: cell-based, mouse
Description: (§1) A) Splenic immune cells were depoted with 10 μg/ml of Pam2CSK4 for 1 h. Depoted cells were resting for up to 1 h versus nondepoted cells with addition of 100 ng/ml of soluble Pam2CSK4. Phosphorylated p38 was measured compared to negative controls by western blotting. n=2 independent experiments. Data depict m±s.d. B) Isolated T-cells were depoted with TLR2 ligand and MFI of activation markers, MHCII and CD69, on bystander B-cells were measured after 2-day culture by flow cytometry and normalized to unstimulated B-cells (fold MFI). n=5-6 independent experiments, one-way ANOVA with Kruskal-Wallis test. Data depict m±s.d. C) Splenocytes were cultured in 2 μg/ml of Concanavalin A and 10 ng/ml of IL-7 for 2 days, and isolated T-cells were then TLR2 ligand-depoted for 1 hour. Depoted T-cells were then resting for 0 h, 3 h, 24 h, or 48 h, before T-cells were chemically fixed and co-cultured for 2 days with CD45.1^+ bystander B-cells. Bystander B-cells were used as a reporter to determine TLR2 ligand surface persistence on depoted T-cells by their fold MFI of MHCII and CD69. n=5 independent experiments. Data depict m±s.d.
A) Pam2CSK4-biotin at indicated concentrations was depoted into CD3+CD8+ or CD3+CD8− T-cells and stained with streptavidin (SAV) PE as determined by flow cytometry. B) Paracrine signaling of resting vs Concanavalin A/IL-7-activated TLR2 ligand-depoted CD8+ T-cells. Activated CD8+ T-cells were isolated from splenocytes cultured in 2 μg/ml of Concanavalin A and 10 ng/ml of IL-7 for 2 days. TLR2 ligand was depoted and processed by CD8+ T-cells for 0 h, 3 h, 6 h, 24 h, or 48 h, before T-cells were chemically fixed and cultured for 2 days with bystander B-cells to determine fold MFI intensity of MHC II, CD69, and CD86 (C).
CD45.1+ B cells were depoted with lipo-CpG, CpG, or nothing. These were cultured alone or 1:1 mixed with bystander (no depot) CD45.1− B cells. B cell activation was shown as fold intensity CD86 measured by flow cytometry after 3 d. B) CD8+ T cells were depoted with Pam2CSK4 or nothing, and then co-cultured 1:1 with bystander CD45.1+ B cells for 3 d. B cell activation was measured by CD86 and compared to a continuous exposure Pam2CSK4 control. […]
After determining that depoting was a robust process, the function of depoted Pam2CSK4 to activate neighboring immune cells was tested. Depoted T cells were co-cultured with responders (B cells) and the expression of activation markers was determined after 2 days of co-culture at a 1:1 T cell:B cell ratio.
In FIG. 11, Pan T cells were isolated from mice and either left alone (blue, red) or depoted with Pam2CSK4 for 1 h (green). […] Expression levels of activation markers were analyzed by flow after 2 days and fluorescence intensity normalized to B cells activated with polyclonal stimulus. […]

[3] = tested on: T-cells; assay: Insertion (depoting) of TLR2 ligands into cell membranes and intracellular localisation; type: cell-based, murine
Description: A) Structure of synthesized lipo-ligand, which are diacyl 18-carbon tails conjugated to: unmethylated CpG oligonucleotide ([…]) (SEQ ID NO: 1), or a poly(ethylene) glycol (PEG) linker plus a melanoma antigen, GP10025-33 (KVPRNQDWL) (SEQ ID NO: 2). B) Schematic of lipo-ligand depoting into cell membrane surface. C-D, CD4+ and CD8+ T-cells are identified by flow cytometry and median fluorescence intensity (MFI) of labeled ligand is determined on each cell subset as a function of time and ligand concentration. C) Fluoroscein (FAM)-labeled lipo-CpG, a TLR9 ligand, depoted into murine splenic immune cells. D) Pam2CSK4, a TLR2 ligand, depoted into murine splenic immune cells. E) MFI of lipo-GP100 is determined by flow cytometry as a function of cell density and depot volume. F-G, Isolated T-cells are depoted by varying depot time or ligand concentration, and quantified as average number of ligand per T-cell by enzyme-linked immunosorbant assay (ELISA) F) Lipo-CpG depoted into isolated T-cells. G) Pam2CSK4 and Pam3CSK4, another TLR2 ligand, respectively depoted into isolated T-cells. H) Average number of each respective ligand per splenic immune cell after 1 hour depot. n=3-5 independent experiments. Data depict m±s.d.
as §1, with “Depoted T-cells were then resting for 0 h, 3 h, 24 h, or 48 h, before T-cells were chemically fixed and co-cultured for 2 days with CD45.1^+ bystander B-cells. Bystander B-cells were used as a reporter to determine TLR2 ligand surface persistence on depoted T-cells by their fold MFI of MHCII and CD69. n=5 independent experiments. Data depict m±s.d.” left out

[4] = tested on: CD8+ T cells with B16F10 tumor cells; assay: Proliferation of depoted CD8+ T cells with αCD3/28 beads in the presence of immunosuppressive tumor cells; type: cell-based, murine; settings: 3 days coculture with αCD3/28 beads
Description: A) Flow cytometry histograms showing CFSE dilution of CD8^+ T-cells after 3-day stimulation with ratios of 1:1 αCD3/CD28 beads and 1:5 B16F10 tumor cells (blue text). T-Cells were cultured with 10 μg/ml of soluble Pam2CSK4 or Pam3CSK4 either alone or in combination with 5 μM of soluble lipo-CpG (solid fill), or depoted with the same respective combinations (tinted fill). B) Quantification of percent of CD8^+ T-cells that divided >5 times compared to undivided CD8^+ T-cells as measured by CF SE dilution from flow cytometry. C) IL-2 production from CD8^+ T-cell supernatents after 3 days of proliferation. n=1 independent experiment.
The proliferative capacity of depoted CD8+ T cells was evaluated after 3 days of coculture with αCD3/28 beads in the presence or absence of immunosuppressive tumor cells.

[5] = tested on: resting memory CD4+ T cells; settings: cited from earlier work
[6] = tested on: cognate CD8+ T-cells; assay: Antigen presentation by lipo-GP100-depoted B-cells to cognate CD8+ T-cells (T-cell proliferation, CFSE dilution); type: cell-based, murine
Description: A) Activated B-cells were isolated from splenocytes and cultured with 1 μg/ml TLR7 ligand R848 and αIgM antibody for 2 days. Resting versus activated B-cells were depoted with lipo-GP100-FAM for 1 hour. Lipo-GP100-FAM and forward scatter fold increase was measured by flow cytometry. B) LipoGP100-depoted resting B-cells presented to and proliferated cognate CD8^+ T-cells at 33 μM of 1 h depoted lipo-GP100 after 3-day culture as measured by CFSE dilution with flow cytometry. Indicated values are percent CD8^+ T-cells that divided at least once. C) BMDCs were cultured with 20 ng/ml of GM-CSF for 7 days before harvested and either depoted with 33 μM of lipo-GP100 or pulsed with 33 μM of short GP100 (KVPRNQDWL) (SEQ ID NO: 2) peptide, along with resting B-cells. These modified APCs were co-cultured with pmel-1 GP100-specific CD8^+ T-cells for 3 days to determine pmel-1 T-cell proliferation by flow cytometry. n=1 independent experiment.
Antigen processing in APC B-cells by A) endocytosis, B) direct binding affinity on APC surface, or C) depoting. 33 uM of indicated GP100 antigen is conferred to APC B-cells for 1 h, then processed by B-cells in aforementioned antigen processing mechanisms for 0 h, 3 h, or 16 h, before B-cells are chemically fixed and cultured with cognate CD8^+ T-cells for 3 days to determine T-cell proliferation. n=1 independent experiment.
An diacyl (C18) lipid-conjugated ligands (lipo-ligands) was engineered that can be depoted into cell membranes in a time- and concentration-dependent fashion for precise and robust delivery up to 241.5±9.6 (mean±SD) fold increase compared to nondepoted cells. […] B) Representative histograms of fluorescein-labeled (FAM-labeled) lipo-GP100 fluorescence on B-cell surface as functions of depot time and lipo-GP100 concentration measured by flow cytometry. Median fluorescence intensity (MFI) of lipo-GP100 FAM fold increase on B-cells from non-depoted B-cells by flow cytometry. […]

Pam2CSK4
effect of depoting on CD8+ T cell proliferation in response to αCD3/28 beads [1]: did not | B cell activation by depoted CD8+ T cells relative to continuous exposure control ([2]; 1:1 co-culture 3 d, CD86): nearly matching continuously exposed control | duration of trans signaling and activation of B cells by depoted CD8+ T cells ([2]; 1:1 co-culture, CD86): 3 days | activation of neighboring responder B cells by depoted T cells relative to soluble ligand ([2]; 2 days co-culture, 1:1 T cell:B cell ratio, depoted 1 h): nearly equivalent to high doses of Pam2CSK4 in solution | persistence of bystander-activating activity of depoted T cells ([2]; data not shown): persists for multiple days | insertion into cell membranes [3]: can be rapidly inserted into cell membranes | intracellular localisation by microscopy ([3]; 24 h post-depoting): colocalizing with early endosome antigen 1 (EEA1) | proliferative capacity of depoted T cells in the presence of tumor cells [4]: recovered proliferative capacity in the presence of tumor cells

Pam3CSK4
insertion into cell membranes [3]: can be rapidly inserted into cell membranes | HIV latency reactivation ("shock") activity [5]: effective “shock” agent | proliferative capacity of depoted T cells in the presence of tumor cells [4]: recovered proliferative capacity in the presence of tumor cells

lipo-GP100: diacyl 18-carbon tails conjugated to a PEG linker plus melanoma antigen GP10025-33 (KVPRNQDWL) (SEQ ID NO: 2) (also: diacyl C18 lipid tails via PEG linker, site not given here)
manner of antigen presentation by APC B-cells to cognate CD8+ T-cells ([6]; 33 uM antigen 1 h, processed 0 h, 3 h or 16 h, fixed, 3-day culture): delayed and prolonged manner | B-cells as APCs versus BMDCs presenting antigen, MHCI-restricted ([6]; 33 μM depoted, 3-day co-culture with pmel-1 CD8+ T-cells): comparable to bone marrow derived cells (BMDCs) | duration of antigen presentation from B-cells to cognate CD8+ T-cells ([6]; GP100 25-33 antigen delivered by depoting): > 16 h
